# Reference: patent publication US20200115698A1, “PHARMACEUTICAL COMBINATION FOR TREATMENT OF FABRY DISEASE AND USE THEREOF” (MEIJI PHARMACEUTICAL UNIVERSITY, priority 2017, published 2020)
# Experiments:
# α-NAGA mutant [1] = molecular target: T1, α-NAGA mutant (Homo sapiens, UniProt P17050, A191L/S188E); assay: Heat stability test carried out by measuring enzyme activity; type: biochemical; settings: 1 or 10 μM DGJ, FIG. 3
# T1 sequence (P17050 with tags, fused parts or gaps S188E/A191L): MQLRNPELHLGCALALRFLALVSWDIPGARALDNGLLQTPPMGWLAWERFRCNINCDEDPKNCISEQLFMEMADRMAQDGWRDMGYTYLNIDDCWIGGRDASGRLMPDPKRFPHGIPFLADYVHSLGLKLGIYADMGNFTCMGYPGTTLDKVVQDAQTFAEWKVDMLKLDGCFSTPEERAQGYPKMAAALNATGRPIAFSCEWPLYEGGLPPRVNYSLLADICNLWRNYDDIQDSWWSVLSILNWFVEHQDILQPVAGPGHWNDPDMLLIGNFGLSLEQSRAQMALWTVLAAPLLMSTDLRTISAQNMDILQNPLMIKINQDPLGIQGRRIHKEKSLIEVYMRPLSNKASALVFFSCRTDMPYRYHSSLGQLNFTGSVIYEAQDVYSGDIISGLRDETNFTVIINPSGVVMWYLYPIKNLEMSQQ
# Experimental: 1 μM or 10 μM of DGJ was added to 10 μg/ml of an α-NAGA mutant solution which had been prepared by dissolving an α-NAGA mutant in a 10 mM sodium phosphate buffer (pH 7.5) or a 25 mM sodium acetate buffer (pH 5.2) (the total amount was 100 μl). Then, incubation was carried out at 42° C. for the solution using the 10 mM sodium phosphate buffer (pH 7.5) and at 55° C. for the solution using the 25 mM sodium acetate buffer (pH 5.2). Then, the incubated solution was sampled by 10 μl at points in time which were respectively 0 and 60 minutes after the start of the incubation. Each of the samples thus obtained was immediately added to 40 μl of a 0.1 M phosphate-citrate buffer (pH 4.6) in which a 5 mM substrate was dissolved, and enzyme activity was measured. Remaining activity is indicated based on an assumption that an enzyme activity value after 0 minutes is 100%. FIG. 3 is a view showing a result of heat stability test for confirming inhibitory activity of DGJ with respect to an α-NAGA mutant.
# α-NAGA mutant [2] = molecular target: T1, α-NAGA mutant; assay: Screening of inhibitor (2): inhibition of enzyme activity of α-NAGA mutant; type: biochemical; settings: 0.1, 1, or 10 μM compound, pH 4.6, 37° C., 30 minutes; FIG. 1
# Experimental: The second screening was carried out as follows: DGJ, GBS, N-C-DGJ, N-DGJ, or N-HE-DGJ dissolved in purified water or DMSO was added to 25 ng of an α-NAGA mutant and 4 mM 4-methylumbelliferylα-D-galactopyranoside dissolved in 0.1 M phosphate-citrate buffer (pH 4.6) such that a concentration of DGJ, GBS, N-C-DGJ, N-DGJ, or N-HE-DGJ became 0.1, 1, or 10 μM, and the mixture thus obtained was caused to react at 37° C. for 30 minutes (the total amount was 50 μl). After the reaction was finished, 950 μl of 0.2 M glycine buffer (pH 10.7) was added to stop the reaction. Then, released 4-methylumbelliferone was measured at an excitation wavelength of 355 nm and at a fluorescence wavelength of 460 nm with use of Wallac 1420 ARVO MX Multilabel Counter. Remaining enzyme activity was calculated based on the assumption that an enzyme activity value obtained in a case where purified water or DMSO is added instead of the inhibitor candidate compound is 100%. FIG. 1 is a view illustrating inhibition of enzyme activity of an α-NAGA mutant by DGJ.
compound,measurement,setting,value
"OCC1NCC(O)C(O)C1O [DGJ, (2R,3S,4R,5S)-2-(hydroxymethyl)piperdine-3,4,5-triol]",heat stability of the α-NAGA mutant (remaining activity after 60 minutes),"α-NAGA mutant [1]; acidic condition pH 5.2, 55° C., higher improvement than at neutral pH",heat stability of the α-NAGA mutant was improved
same,heat stability of the α-NAGA mutant (remaining activity after 60 minutes),"α-NAGA mutant [1]; neutral condition pH 7.5, 42° C.",heat stability of the α-NAGA mutant was improved
same,inhibition of enzyme activity of an α-NAGA mutant (remaining enzyme activity),α-NAGA mutant [2],had the effect of inhibiting activity of an α-NAGA mutant
